From patent publication US20160143946A1, “COMBINATION THERAPIES FOR TREATING CANCER” (priority 2014, published 2016)
Like-named read-outs stand apart in the source and are kept apart here.

Key:
Assay type in all cases: cell-based, human
[1] = tested on: SW780 bladder cancer cell line; experiment: Cell viability by MTT incorporation, SW780 bladder cancer cells; settings: read-out: SW780 IC50
Procedure: (§1) SW780 and HT1376 bladder cancer cell lines stained with anti-CD44 and anti-CD49f were examined by flow cytometry. Cells were treated with cisplatin, AR-42, sodium butyrate, valproic acid, and trichostatin A at concentrations indicated for 24 hours and cell viability was determined by MTT incorporation. The table denotes IC50s for SW780 and HT1376 cells to listed agents.
(§2) Bladder Cancer Cell Lines—SW780 and HT1376 cell lines were grown in RPMI with 10% fetal bovine serum at 37° C. with 5% CO2 and treated with cisplatin, AR-42, sodium butyrate, trichostatin A, and valproic acid at concentrations indicated.
(§3) SW780 and HT1376 cell lines were treated with cisplatin, AR-42, sodium butyrate, valproic acid, and trichostatin A at various concentrations and cell viability was determined by MTT incorporation (FIG. 1).

[2] = tested on: HT1376 bladder cancer cell line; experiment: Cell viability by MTT incorporation, HT1376 bladder cancer cells; settings: read-out: HT1376 IC50
Procedure: as §1, §2, §3

SW780 cells = experiment: Cisplatin / HDAC inhibitor combination, MTT survival with isobologram combination index, SW780; settings: administered at their IC90s; SW780 and HT1376 cells (Table 3)
Procedure: Isobolograms were used to calculate combination indices to indicate synergy at IC50 and IC90, whereby CI<1 denotes synergy.
as §2
SW780 and HT1376 cells treated with cisplatin, AR-42, a combination cisplatin and AR-42 at a 5:1 ratio, a combination cisplatin and AR-42 in a 20:1 molar ratio, as assessed by MTT incorporation (FIG. 2).

[3] = Homo sapiens, SW780 cells, 24 hours treatment, MTT incorporation
[4] = Homo sapiens, HT-1376, HT1376 cells, 24 hours treatment, MTT incorporation
[5] = SW780 cells, 24 hours treatment, MTT incorporation
[6] = HT1376 cells, 24 hours treatment, MTT incorporation

SMILES | IC50 [1, 3] [µM] | IC50 [2, 4] [µM] | IC50 [1, 5] [µM] | IC50 [2, 6] [µM] | synergy with cisplatin (SW780 cells) | also measured
CCCC(CCC)C(=O)O [Valproic Acid] | 6040 | 7390 |  |  |  | 
N.N.[Cl][Pt][Cl] [Cisplatin] |  |  | 8.5 | 30.5 |  | 
CC(/C=C/C(=O)NO)=C\[C@@H](C)C(=O)c1ccc(N(C)C)cc1 [Trichostatin A] |  |  | 0.25 | 0.12 |  | 
CC(C)[C@H](C(=O)Nc1ccc(C(=O)NO)cc1)c1ccccc1 [AR-42] | 1.41 | 1.4 |  |  | synergy | 
CCCC(=O)[O-].[Na+] [Sodium Butyrate] |  |  |  |  | synergy | IC50 ([1]; Homo sapiens, SW780, 24 h): 3780 µM; IC50 ([2]; Homo sapiens, HT-1376, 24 h): 8530 µM
